Measured values published in patent publication US9910031B2, “Compositions and methods for modulating c-Rel-dependent cytokine production” (Synta Pharmaceuticals Corporation, priority 2003, dated 2018).

Assays:
NFκB = experiment: Gel-shift assay of NFκB binding to the IL-12 p40 promoter site, THP-1 nuclear extracts; format: cell-based, human; conditions: IFN-γ-primed, SAC-stimulated THP-1; 1 μM Compound 1 or 10 mM ASA
Method: Nuclear extracts were prepared from IFN-γ-primed THP-1 cells that had been treated with or without SAC and incubated in the presence or absence of 1 μM Compound 1 or 10 mM ASA. Isolation of nuclear extracts was accomplished by first suspending THP-1 cells in 20 volumes of buffer A containing 10 mM KCl, 10 mM HEPES (pH 7.9), 1 mM MgCl2, 1 mM dithiothreitol (DTT), 0.1% Nonidet p40 (NP-40), and 0.5 mM phenylmethylsulfonyl fluoride (PMSF) and then homogenizing and centrifuging at 10,000 rpm at 4° C. for 5 min. Nuclear pellets were then suspended in buffer C containing 400 mM NaCl, 20 mM HEPES pH 7.9), 15 mM MgCl2, 0.2 mM EDTA, 1 mM DTT, 25% glycerol, 1 mM PMSF, and 10 μg of leupeptin, 20 μg of pepstatin, and 10 μg of antipain per ml, incubated for 30 min at 4° C., and centrifuge at 14,000 rpm for […]. The supernatants were dialyzed against buffer D containing 100 mM NaCl, 20 mM HEPES (pH 7.9), 20% glycerol, 1 mM PMSF, and 1 mM DTT.
The extracts obtained from this process were used in gel-shift assays using oligonucleotides containing the NFκB target sequence corresponding to the region −121 to −102 from the transcription initiation site of IL-12 p40 or a mutated NFκB binding site. […] This interaction was specific as it was competed away by an excess of unlabeled probe, but not by a mutated oligonucleotide in which two base-pairs were substituted. […]

IL-12 p70 = experiment: Inhibition of production of IL-12 p70 protein; format: cell-based, human; conditions: 1 μM Compound 1; 10 mM ASA
Method: Cells were co-transfected with the vector pCMV (BD Biosciences Clontech) in which the constitutively active CMV promoter directs β-galactosidase expression for the monitoring of transfection efficiency. Luciferase and β-galactosidase activity were determined in cell extracts prepared according to the Luciferase assay system (Promega) and Luminescent n-gal Detection system (BD Biosciences Clontech). Luciferase activity was then normalized using the β-galactosidase value. […] ELISA was performed by the following method. Human IL-12 p70 (heterodimer) was assayed using ELI-PAIR kit from Cell Sciences (Norwood, Mass.), according to the manufacturer's instructions. Human IL-12 p40 was assayed using ELISA kit from Cell Sciences (Norwood, Mass.) according to the manufacturer's instructions.
The extracts obtained from this process were used in gel-shift assays using oligonucleotides containing the NFκB target sequence corresponding to the region −121 to −102 from the transcription initiation site of IL-12 p40 or a mutated NFκB binding site. […] This interaction was specific as it was competed away by an excess of unlabeled probe, but not by a mutated oligonucleotide in which two base-pairs were substituted. […] This is expected since a compound that potently blocks NFkB have a far broader cytokine inhibitory profile than Compound 1/Compound 2.

- NFκB binding to p40 promoter probe (gel shift) (NFκB): reduced the binding significantly
Compound: CC(=O)Oc1ccccc1C(=O)O [ASA, reference compound]
- percent inhibition of production of IL-12 p70 protein (IL-12 p70): 45%
